From US20080279781A1, “Glycosylated Carboranylporphyrins and Uses Thereof” (Brookhaven Science Associates, LLC, priority 2007, published 2008)

What was measured:
[1] = Weight changes and hematologic parameters in mice bearing SCCVII carcinomas; assay type: in vivo, C3H mice; settings: for % Weight change / Granulocytes / Lymphocytes / Platelets: median (range)
Experimental: (§1) C3H mice bearing subcutaneously implanted SCCVII squamous cell carcinomas implanted on the dorsal thorax were given a total dose of 450 milligrams porphyrin compound VII per kilogram body weight (70 mg B/kg) via 6 i.p. injections given over a period of 2 days (3/day over 8 hours). Mice were given porphyrin XXIII at a total dose of 160 mg/kg (36 mg/kg B) via 3 i.p. injections given over a period of 8 hours. At one and two days after the last injection, mice were euthanized, and tumor, blood, brain, and liver were removed for boron analyses. The blood was first analyzed for hematologic parameters that indicate toxicity before it was analyzed for boron.

[2] = tested on: SCCVII squamous cell carcinomas; assay: Biodistribution of porphyrins in mice bearing SCCVII squamous cell carcinomas; assay type: in vivo, C3H mice; settings: for Average boron concentration, SCCVII Tumor: wet tissue
Experimental: (§2) Porphyrin compounds (VII, XII, XXIII) were emulsified in 3% Cremophor EL and 6% propylene glycol in saline.
(§3) To prepare a solution of ˜3.5 mg/mL porphyrin in 3% Cremophor EL (CRM) and 6% propylene glycol (PRG), the porphyrin was dissolved in tetrahydrofuran (THF) (1.5% of the total volume) and then heated to 40° C. for 15 min. CRM (3% of total volume) was then added and the mixture was heated to 60° C. for 2 hours, which removed most of the THF. After cooling to room temperature, PRG (6% of total volume) was added, followed by slow dropwise addition of saline (89.5% of total volume) with rapid stirring. The solution was degassed by stirring under vacuum (˜30 mm Hg) for 30-60 min and then filtered (Millipore, 8 μm).
as §1

EMT-6 mammary carcinomas = assay: Biodistribution of porphyrins in mice bearing EMT-6 carcinomas (boron by DCP-AES); assay type: in vivo, BALB/c mice; settings: n = 5; for Average boron concentration, EMT-6 Tumor: wet tissue
Experimental: as §2, §3
(§4) BALB/c mice bearing subcutaneously implanted EMT-6 mammary carcinomas implanted on the dorsal thorax were given a total dose of 200-230 milligrams porphyrin compound (VII or XII) per kilogram body weight (32-37 mg B/kg). Mice were given six intraperitoneal injections over a 2-day period with 3 injections per day at 4-hour intervals. At one and two days after the last injection, mice were euthanized, and tumor, blood, brain, and liver were removed for boron analyses by direct current-plasma-atomic-emission spectrometry (DCP-AES). The blood was first analyzed for hematologic parameters that indicate toxicity before it was analyzed for boron.

[3] = Weight changes and hematologic parameters in mice bearing EMT-6 carcinomas; assay type: in vivo, BALB/c mice; settings: median (range), 5 mice
Experimental: as §4

tumors = settings: in vivo; cited from earlier work
[4] = 180 mg/kg (39 mg B/kg) per table title, 160 mg/kg in text, i.p., 1 d after last injection, 4 mice
[5] = 180 mg/kg (39 mg B/kg) per table title, 160 mg/kg in text, i.p., 2 d after last injection, 4 mice
[6] = 160 mg/kg (36 mg B/kg in title, 160/39 in table) in 3 i.p. injections over 8 hours, 1 d after last injection, 4 mice
[7] = 160 mg/kg (36 mg B/kg in title, 160/39 in table) in 3 i.p. injections over 8 hours, 2 d after last injection, 4 mice
[8] = 450 mg/kg (70 mg B/kg) i.p., 1 d after last injection, 5 mice
[9] = 200 mg/kg (32 mg B/kg) in 6 i.p. injections over 2 days, 1 d after last injection
[10] = 200 mg/kg (32 mg B/kg) in 6 i.p. injections over 2 days, 2 d after last injection
[11] = 450 mg/kg (70 mg B/kg) in 6 i.p. injections over 2 days, 1 d after last injection, 5 mice
[12] = 200 mg/kg i.p., 1 d after last injection
[13] = 200 mg/kg i.p., 2 d after last injection
[14] = 230 mg/kg (37 mg B/kg) in 6 i.p. injections over 2 days, 1 d after last injection
[15] = 230 mg/kg (37 mg B/kg) in 6 i.p. injections over 2 days, 2 d after last injection
[16] = 230 mg/kg i.p., 1 d after last injection
[17] = 230 mg/kg i.p., 2 d after last injection

copper (II) meso-5,15-bis[m-(3,5-di-o-carboranylmethoxybenzyloxy)phenyl]-10,20-bis[3-(β-D-glucosyl)phenyl]porphyrin [Porphyrin XXIII]
% Weight change [1, 4]: 0.5 (−1.9-3.2) %
Granulocytes [1, 4]: 43 (32-46) % WBC
Lymphocytes [1, 4]: 53 (48-64) % WBC
Platelets [1, 4]: 775 (618-881) 10^3/mm^3
% Weight change [1, 5]: 3.2 (0.9-6.3) %
Granulocytes [1, 5]: 39 (36-43) % WBC
Lymphocytes [1, 5]: 57 (51-59) % WBC
Platelets [1, 5]: 655 (610-723) 10^3/mm^3
platelet count in comparison with the control mice ([1]; moderately high dose of 160 mg/kg): did not show any decrease in platelet count
Average boron concentration, Blood [2, 6]: 0.6 ± 0.1 µg/g
Average boron concentration, Brain [2, 6]: 0.1 ± 0.0 µg/g
Average boron concentration, Liver [2, 6]: 540 ± 32 µg/g
Average boron concentration, Blood [2, 7]: 0.3 ± 0 µg/g
Average boron concentration, Brain [2, 7]: 0.0 ± 0.0 µg/g
Average boron concentration, Liver [2, 7]: 534 ± 59 µg/g
Average boron concentration, SCCVII Tumor [2, 6]: 16.9 ± 2.6 µg/g
Average boron concentration, SCCVII Tumor [2, 7]: 14.5 ± 2.9 µg/g

copper (II) meso-5,15-bis[3-(o-carboranylmethoxy)phenyl]-10,20-bis[3-(β-D-glucosyl)phenyl]porphyrin [Porphyrin VII]
% Weight change [1, 8]: −1.2 (−2.6-1.9) %
Granulocytes [1, 8]: 46 (41-50) % WBC
Lymphocytes [1, 8]: 50 (46-56) % WBC
Platelets [1, 8]: 739 (628-751) 10^3/mm^3
thrombocytopenia ([1]; very high dose of 450 mg/kg): no thrombocytopenia
Average boron concentration, Blood (EMT-6 mammary carcinomas; [9]): 0.4 ± 0.1 μg B/g
Average boron concentration, Brain (EMT-6 mammary carcinomas; [9]): 0.0 ± 0.0 μg B/g
Average boron concentration, Liver (EMT-6 mammary carcinomas; [9]): 457 ± 74 μg B/g
Average boron concentration, Blood (EMT-6 mammary carcinomas; [10]): 0.2 ± 0.0 μg B/g
Average boron concentration, Brain (EMT-6 mammary carcinomas; [10]): 0.0 ± 0.0 μg B/g
Average boron concentration, Liver (EMT-6 mammary carcinomas; [10]): 492 ± 83 μg B/g
Average boron concentration, EMT-6 Tumor (EMT-6 mammary carcinomas; [9]): 20.2 ± 6.3 μg B/g
Average boron concentration, EMT-6 Tumor (EMT-6 mammary carcinomas; [10]): 19.0 ± 5.4 μg B/g
Average boron concentration, Blood [2, 11]: 1.0 ± 0.1 µg/g
Average boron concentration, Brain [2, 11]: 0.3 ± 0.1 µg/g
Average boron concentration, Liver [2, 11]: 787 ± 70 µg/g
Average boron concentration, SCCVII Tumor [2, 11]: 29.1 ± 7.9 µg/g
% Weight change [3, 12]: −0.18 (−5.6-4.7) %
Granulocytes [3, 12]: 49 (43-61) % WBC
Lymphocytes [3, 12]: 47 (37-54) % WBC
Platelets [3, 12]: 504 (111-783)* 10^3/mm^3
% Weight change [3, 13]: 3.5 (−1.5-3.9) %
Granulocytes [3, 13]: 45 (40-54) % WBC
Lymphocytes [3, 13]: 52 (44-56) % WBC
Platelets [3, 13]: 935 (840-1039) 10^3/mm^3

N[C@@H](Cc1ccc(B(O)O)cc1)C(=O)O [BPA, p-boronophenylalanine]
chemical toxicity (tumors): low chemical toxicity

Copper (II) meso-5,15-bis[3-(o-carboranylmethoxy)phenyl]-10,20-bis[3-(β-D-galactose)phenyl]porphyrin [Porphyrin XII]
Average boron concentration, Blood (EMT-6 mammary carcinomas; [14]): 0.4 ± 0.1 μg B/g
Average boron concentration, Brain (EMT-6 mammary carcinomas; [14]): 0.0 ± 0.1 μg B/g
Average boron concentration, Liver (EMT-6 mammary carcinomas; [14]): 473 ± 102 μg B/g
Average boron concentration, Blood (EMT-6 mammary carcinomas; [15]): 0.2 ± 0.1 μg B/g
Average boron concentration, Brain (EMT-6 mammary carcinomas; [15]): 0.0 ± 0.1 μg B/g
Average boron concentration, Liver (EMT-6 mammary carcinomas; [15]): 354 ± 352 μg B/g
Average boron concentration, EMT-6 Tumor (EMT-6 mammary carcinomas; [14]): 16.7 ± 8.3 μg B/g
Average boron concentration, EMT-6 Tumor (EMT-6 mammary carcinomas; [15]): 12.6 ± 5.2 μg B/g
% Weight change [3, 16]: 1.2 (−3.5-4.8) %
Granulocytes [3, 16]: 61 (38-71) % WBC
Lymphocytes [3, 16]: 36 (26-59) % WBC
Platelets [3, 16]: 962 (944-1306) 10^3/mm^3
% Weight change [3, 17]: 3.4 (−2.2-4.8) %
Granulocytes [3, 17]: 43 (34-76) % WBC
Lymphocytes [3, 17]: 54 (22-63) % WBC
Platelets [3, 17]: 797 (736-877) 10^3/mm^3
